Legend:
hBC [1] = test: androgen-stimulated hBC growth, 48 h incubation; format: cell-based, human; conditions: DHT 10 nM, Compound A 1 nM, finasteride 1 nM, FIG. 5
From the text: Results are expressed as percentage variation (mean±SEM) over their relative controls and derived from at least three different experiments obtained from three distinct hBC cell preparations. *P<0.05 (vs. control); °P<0.01 (vs. androgen-treated cells).

BOO rats = test: bladder outlet obstruction (BOO) rat model: cystometry and bladder weight; format: in vivo, Sprague-Dawley rats; conditions: 150 ug/kg/daily over 2 weeks
Description: Female Sprague-Dawley rats, weighing 200-250 g
Group A: BOO rats, treated with the vitamin D analogue over 2 weeks, beginning at day 1 after creation of the obstruction (n=12)
Group B: BOO rats, treated with vehicle over 2 weeks, beginning at day 1 after creation of the obstruction (n=12)
Group C: Sham operated rats, treated with the vitamin D analogue over 2 weeks, beginning at day 1 after surgery (n=12)
a) Cystometry (˜18 hours after last administration of the drug/vehicle, 12 hours after removal of the obstructing ligature) under conscious conditions.
The bladder and urethrovesical junction were exposed through a lower abdominal midline incision. A 0.9 mm metal rod was placed alongside the proximal urethra and a 3-0 silk ligature was tied tightly around the urethra and the rod, which was consequently removed. Sham surgery was performed accordingly, without placing the ligature. After 13 days the ligature was removed and a catheter was inserted into the bladder dome and tunneled subcutaneously.
The following morning after insertion of the catheter, the cystometric investigation was performed without any anesthesia or restraint in a metabolic cage. The amount of voided urine was measured by means of a fluid collector, connected to a force displacement transducer. The bladder was continuously filled with saline at room temperature. The catheter was also connected to a pressure transducer. After a stabilization period of 30-60 minutes, when reproducible voiding patterns are achieved, the following parameters were recorded over a period of 30 min: Basal bladder pressure, micturition pressure, threshold pressure, micturition interval and volume, and non-voiding contractions. The amount of residual urine was investigated manually 3 times, at the end of the cystometry. Bladder capacity was calculated based on the measured values.
The validated bladder outlet obstruction rat model described above was used to test the ability of vitamin D3 analogues to control and treat bladder dysfunction. The objective was to evaluate whether a vitamin D3 analogue (1-alpha-fluoro-25-hydroxy-16,23e-diene-26,27-bishomo-20-epi-cholecalciferol-Compound “A”) at the dose of 150 ug/kg/daily can prevent bladder hypertrophy and bladder dysfunction such as bladder overactivity.
In this model a ligature was surgically placed around the outlet of the catheterized bladder, so that when the catheter was removed, the bladder experienced increased urethral resistance. The rats underwent continuous cystometry to evaluate bladder function. In addition the contractile properties of isolated bladder preparation in response to nerve stimulation and exogenous stimuli in vitro were investigated under electrical field stimulation (EFS).

hBC [2] = test: DNA fragmentation / apoptotic index in hBC by in situ end labelling (ISEL); conditions: Compound A 10 nM, alone and in the presence of KGF (10 ng/ml) or testosterone (10 nM); FIG. 7

C=C1/C(=C\C=C2/CCC[C@]3(C)C([C@@H](C)C/C=C/C(O)(CC)CC)=CC[C@@H]23)C[C@@H](O)C[C@@H]1F [Compound A, 1-alpha-fluoro-25-hydroxy-16,23E-diene-26,27-bishomo-20-epi-cholecalciferol]
hBC proliferation stimulated by the androgen DHT (hBC [1]): inhibits
spontaneous non-voiding contraction amplitude (BOO rats; versus vehicle): significant differences versus vehicle
spontaneous non-voiding contraction frequency (BOO rats; versus vehicle): significant differences versus vehicle
micturition pressure (BOO rats; versus vehicle, FIG. 19): significant differences versus vehicle
bladder weight (BOO rats; FIG. 16): slight decrease
residual urine (BOO rats; FIG. 20): absent
apoptotic index (hBC [2]): significantly increases
